Literature values as cited in US7611833B2, “Yeast genes that affect viral replication” (priority 2001, dated 2009).
Like-named read-outs stand apart in the source and are kept apart here.

What was measured:
poliovirus [1] = system: poliovirus
poliovirus [2] = system: poliovirus; remark: listed apart in the source
HeLa cells = HeLa cells treated with oleic acid
poliovirus [3] = system: poliovirus; remark: listed apart in the source

Row | SMILES | Poliovirus RNA replication (poliovirus [1]) | In vitro translation (poliovirus [2]) | Poliovirus RNA replication (poliovirus [2]) | Synthesis of lipids (HeLa cells) | RNA replication by poliovirus (poliovirus [3]) | RNA replication by the alphavirus SFV (alphavirus SFV)
1 | CCCCCCCC/C=C\CCCCCCCC(=O)O [oleic acid] | disrupts poliovirus RNA replication | inhibited in vitro translation | disrupts poliovirus RNA replication | major changes in the synthesis of many lipids |  | 
2 | C/C=C/C/C=C/CCC(=O)[C@H]1O[C@H]1C(N)=O [Cerulenin] |  |  |  |  | inhibits RNA replication | inhibits RNA replication
